Experimental data: paper PMC10401708, “Enzymatic Hydroxylation of Aliphatic C–H Bonds by a Mn/Fe Cofactor” (Journal of the American Chemical Society, 2023)

Tests used:
[1] = biological target: T1, AibH1H2 (Rhodococcus wratislaviensis, UniProt A0A402C2Q3); experiment: GC-MS of silylated D-MeSer product; assay type: biochemical; settings: preliminary estimate; O2, ascorbate as reductant, 1 equiv Fe(II) added to Mn-grown enzyme; 20 mM HEPES pH 8.0, 30 °C
T1 construct: gene Rhow_000803; recombinant, E. coli BL21(DE3), pET-Duet-AibH1H2 with GroEL/ES-TF; His6-tagged; (alpha-beta)2 heterotetramer; Mn-grown (MnAibH1H2), Fe(II) added; with 2-aminoisobutyric acid hydroxylase subunit AibH1 (amidohydrolase family protein)
T1 sequence (A0A402C2Q3 entry or part of it): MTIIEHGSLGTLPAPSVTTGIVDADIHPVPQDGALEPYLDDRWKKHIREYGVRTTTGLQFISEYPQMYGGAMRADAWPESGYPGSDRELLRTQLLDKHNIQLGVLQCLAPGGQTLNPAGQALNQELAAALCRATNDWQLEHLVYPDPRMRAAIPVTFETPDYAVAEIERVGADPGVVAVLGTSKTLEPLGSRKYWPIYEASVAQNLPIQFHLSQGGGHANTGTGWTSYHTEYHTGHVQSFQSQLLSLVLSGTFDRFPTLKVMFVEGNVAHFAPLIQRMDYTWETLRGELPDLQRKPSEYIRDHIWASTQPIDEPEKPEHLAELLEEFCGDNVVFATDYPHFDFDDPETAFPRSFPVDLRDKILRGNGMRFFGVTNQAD
T1 sequence (A0A402C2V4 entry or part of it, further chain): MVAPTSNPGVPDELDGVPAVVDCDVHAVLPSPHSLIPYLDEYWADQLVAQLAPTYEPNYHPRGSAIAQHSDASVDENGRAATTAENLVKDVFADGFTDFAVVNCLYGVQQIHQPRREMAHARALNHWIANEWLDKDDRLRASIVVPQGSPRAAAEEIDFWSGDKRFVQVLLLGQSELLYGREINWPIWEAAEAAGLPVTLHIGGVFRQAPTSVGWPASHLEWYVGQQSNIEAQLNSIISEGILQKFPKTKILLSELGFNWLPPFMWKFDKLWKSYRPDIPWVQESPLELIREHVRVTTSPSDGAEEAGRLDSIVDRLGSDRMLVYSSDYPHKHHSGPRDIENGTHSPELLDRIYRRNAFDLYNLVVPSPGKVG

[2] = biological target: T2, AibH1H2 (Rhodococcus wratislaviensis, UniProt A0A402C2Q3, D342A); experiment: enzymatic activity assay (GC-MS); assay type: biochemical; settings: diminished activity although all metals are incorporated
T2 construct: gene Rhow_000803; recombinant, E. coli BL21(DE3), pET-Duet-AibH1H2 with GroEL/ES-TF; His6-tagged; (alpha-beta)2 heterotetramer; Mn-grown (MnAibH1H2), Fe(II) added; with 2-aminoisobutyric acid hydroxylase subunit AibH1 (amidohydrolase family protein)
T2 sequence (A0A402C2V4 entry or part of it, stated change not applied): as the sequence (A0A402C2V4 entry or part of it, further chain) above
T2 sequence (A0A402C2Q3 entry or part of it D342A): as the sequence (A0A402C2Q3 entry or part of it) above, with D342A counted along it

CC(C)(N)C(=O)O [AIB, 2-aminoisobutyric acid]
Km [1]: > 100 mM | enzymatic activity assay (GC-MS) [2]: upon substitution to alanine, results in protein with diminished enzymatic activity
